The source of these data is US9144239B2, “Macrocyclic picolinamides as fungicides” (DOW AGROSCIENCES LLC, priority 2012, dated 2015).

Test [1] has as its system Puccinia triticina; synonym: Puccinia recondita f. sp. tritici. Briefly: Fungicidal activity: wheat brown rust (PUCCRT), wheat seedlings. In kind it is in vivo. Conditions: 100 ppm, wheat. As for the experimental part:
Technical grades of materials were dissolved in acetone, which were then mixed with nine volumes of water containing 110 ppm Triton X-100. The fungicide solutions were applied onto wheat seedlings using an automated booth sprayer to run-off. All sprayed plants were allowed to air dry prior to further handling. Wheat plants (variety Yuma) were grown from seed in a greenhouse in 50% mineral soil/50% soil-less Metro mix until the first leaf was fully emerged, with 7-10 seedlings per pot. These plants were inoculated with an aqueous spore suspension of Septoria tritici either prior to or after fungicide treatments. After inoculation the plants were kept in 100% relative humidity (one day in a dark dew chamber followed by two to three days in a lighted dew chamber at 20° C.) to permit spores to germinate and infect the leaf. The plants were then transferred to a greenhouse set at 20° C. for disease to develop. When disease symptoms were fully expressed on the 1st leaves of untreated plants, infection levels were assessed on a scale of 0 to 100 percent disease severity. Percent disease control was calculated using the ratio of disease severity on treated plants relative to untreated plants. Evaluation of Fungicidal Activity: Wheat Brown Rust (Puccinia […]; Synonym: Puccinia recondita f. Sp. Tritici; Bayer Code PUCCRT) Wheat plants (variety Yuma) were grown from seed in a greenhouse in 50% mineral soil/50% soil-less Metro mix until the first leaf was fully emerged, with 7-10 seedlings per pot. These plants were inoculated with an aqueous spore suspension of Puccinia triticina either prior to or after fungicide treatments. After inoculation the plants were kept in a dark dew room at 22° C. with 100% relative humidity overnight to permit spores to germinate and infect the leaf. The plants were then transferred to a greenhouse set at 24° C. for disease to develop. Fungicide formulation, application and disease assessment followed the procedures as described in the Example A.

In test [2] the test system is Mycosphaerella graminicola; anamorph: Septoria tritici. Briefly: Fungicidal activity: leaf blotch of wheat (SEPTTR), wheat seedlings. Conditions: Zymoseptoria tritici, 100 ppm, wheat. In kind it is in vivo. The method, then:
Evaluation of Fungicidal Activity: Leaf Blotch of Wheat (Mycosphaerella Graminicola; Anamorph: Septoria tritici; Bayer Code […]) Technical grades of materials were dissolved in acetone, which were then mixed with nine volumes of water containing 110 ppm Triton X-100. The fungicide solutions were applied onto wheat seedlings using an automated booth sprayer to run-off. All sprayed plants were allowed to air dry prior to further handling. Wheat plants (variety Yuma) were grown from seed in a greenhouse in 50% mineral soil/50% soil-less Metro mix until the first leaf was fully emerged, with 7-10 seedlings per pot. These plants were inoculated with an aqueous spore suspension of Septoria tritici either prior to or after fungicide treatments. After inoculation the plants were kept in 100% relative humidity (one day in a dark dew chamber followed by two to three days in a lighted dew chamber at 20° C.) to permit spores to germinate and infect the leaf. The plants were then transferred to a greenhouse set at 20° C. for disease to develop. When disease symptoms were fully expressed on the 1st leaves of untreated plants, infection levels were assessed on a scale of 0 to 100 percent disease severity. Percent disease control was calculated using the ratio of disease severity on treated plants relative to untreated plants.

Setting [3] is: 24 h, 1 Day Protectant, read-out: Disease Control PUCCRT 1DP.
The mark [4] stands for this setting: 24 h, 1 Day Protectant, read-out: Disease Control SEPTTR 1DP.
The mark [5] stands for this setting: 72 h, 3 Day Curative, read-out: Disease Control SEPTTR 3DC.
The mark [6] stands for this setting: 72 h, 3 Day Curative, read-out: Disease Control PUCCRT 3DC.

Read-outs that look alike come from different tables or passages of the source.

Consider `COc1ccnc(C(=O)N[C@H]2CO[C@@H](C)[C@H](OCC(C)C)[C@@H](OCC(C)C)COC2=O)c1O` [Compound 4], for which the pest or weed control at 100 ppm in test [1] (setting [3]), in test [2] (setting [4]) and in test [2] (setting [5]) was 80 to 100% throughout.
`COc1ccnc(C(=O)N[C@H]2COC[C@H](OCc3ccccc3)[C@@H](OCc3ccccc3)COC2=O)c1O` [Compound 5, N-((3S,7S,8S)-7,8-bis(benzyloxy)-2-oxo-1,5-dioxonan-3-yl)-3-hydroxy-4-methoxypicolinamide]: the pest or weed control at 100 ppm in test [1] (setting [3]), in test [1] (setting [6]), in test [2] (setting [4]) and in test [2] (setting [5]) was 0 to 80% in each case.
As to `COc1ccnc(C(=O)N[C@H]2CO[C@@H](C)[C@H](OCC(C)C)[C@@H](OCC(C)C)COC2=O)c1OCOC(=O)C(C)C` [Compound 7], the pest or weed control at 100 ppm in test [1] (setting [3]), in test [2] (setting [4]) and in test [2] (setting [5]) was 80 to 100% in each case.
Take `COc1ccnc(C(=O)N[C@H]2COC[C@H](OCC(C)C)[C@@H](OCC(C)C)COC2=O)c1O` [Compound 8]: the pest or weed control at 100 ppm lay in the range of 0 to 80% in test [1] (setting [3]), 80 to 100% in test [1] (setting [6]), 0 to 80% in test [2] (setting [4]) and 0 to 80% in test [2] (setting [5]).
Consider `C=C(C)CO[C@H]1COC[C@@H](NC(=O)c2nccc(OC)c2O)C(=O)OC[C@@H]1OCC(=C)C` [Compound 9], for which the pest or weed control at 100 ppm in test [1] (setting [3]), in test [1] (setting [6]), in test [2] (setting [4]) and in test [2] (setting [5]) was 0 to 80% throughout.
Turning to `COc1ccnc(C(=O)N[C@@H]2COC[C@H](OCC(C)C)[C@@H](OCC(C)C)COC2=O)c1OCOC(C)=O` [Compound 14], the pest or weed control at 100 ppm in test [1] (setting [3]) lay within 80 to 100%; in test [1] (setting [6]), 0 to 80%; in test [2] (setting [4]), 0 to 80%.
As for `COc1ccnc(C(=O)N[C@H]2COC[C@H](OCC(C)C)[C@@H](OCC(C)C)[C@@H](COCC(C)C)OC2=O)c1O` [Compound 15, N-((3S,7S,8R,9R)-7,8-diisobutoxy-9-(isobutoxymethyl)-2-oxo-1,5-dioxonan-3-yl)-3-hydroxy-4-methoxypicolinamide], the pest or weed control at 100 ppm in test [1] (setting [6]) and in test [2] (setting [4]) was 0 to 80% in each case.
`CC[C@H]1OC(=O)[C@@H](NC(=O)c2nccc(OC)c2O)COC[C@H](OCC(C)C)[C@H]1OCC(C)C` [Compound 19, N-((3S,7S,8S,9R)-9-ethyl-7,8-diisobutoxy-2-oxo-1,5-dioxonan-3-yl)-3-hydroxy-4-methoxypicolinamide]: the pest or weed control at 100 ppm in test [2] (setting [4]) and in test [2] (setting [5]) was 0 to 80% in each case.
For the compound `CC[C@H]1OC(=O)[C@@H](NC(=O)c2nccc(OC)c2OCOC(C)=O)COC[C@H](OCC(C)C)[C@H]1OCC(C)C` [Compound 20], the pest or weed control at 100 ppm in test [2] (setting [4]) and in test [2] (setting [5]) was 0 to 80% throughout.
For the compound `CC[C@H]1OC(=O)[C@H](NC(=O)c2nccc(OC)c2O)COC[C@H](OCC(C)C)[C@H]1OCC(C)C` [Compound 22], the pest or weed control at 100 ppm in test [2] (setting [4]) and in test [2] (setting [5]) was 0 to 80% each time.
As for `COc1ccnc(C(=O)N[C@H]2COC[C@H](OCC(C)C)[C@@H](Oc3cccc(Cl)c3)[C@H](C)OC2=O)c1O` [Compound 194], the pest or weed control at 100 ppm in test [1] (setting [3]) and in test [1] (setting [6]) was 80 to 100% in each case.
`COc1ccnc(C(=O)N[C@H]2COC[C@H](OCC(C)C)[C@@H](Oc3ccc(C(F)(F)F)cc3)[C@H](C)OC2=O)c1O` [Compound 195]: the pest or weed control at 100 ppm in test [1] (setting [3]) was 80 to 100%.
Consider `CCCO[C@H]1[C@H](C)OC(=O)[C@@H](NC(=O)c2nccc(OC)c2O)COC[C@@H]1Oc1ccc(C(F)(F)F)cc1` [Compound 197], for which the pest or weed control at 100 ppm in test [1] (setting [3]) fell in the range of 80 to 100%.
For `COc1ccc(O[C@H]2COC[C@H](NC(=O)c3nccc(OC)c3O)C(=O)O[C@@H](C)[C@@H]2OC(=O)C(C)C)cc1` [Compound 200], the pest or weed control at 100 ppm in test [2] (setting [4]) is 0 to 80%.
